# In patent publication US9795607B2, “Substituted pyrrolopyrimidine compounds, compositions thereof, and methods of treatment therewith” (Signal Pharmaceutical, LLC, priority 2013, dated 2017):
# Read-outs that look alike come from different tables or passages of the source.
# Tested on: Triple negative breast cancer cell line CAL51
# Experiment: Cell Titer Glo proliferation assay, CAL51
# Assay type: cell-based
# Conditions: Homo sapiens, CAL-51, read-out: Act. Level
# Outline: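 CAL51 cells grown in DMEM or RPMI1640 with 10% FBS and 2 mM L-glutamine, cultured overnight, then exposed to serially diluted compound (0.2% DMSO final) for 72 h. Viability read by Cell Titer Glo luminescence.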
# [1] = CAL51 cell proliferation, Cell Titer Glo
IC50 [1] [nM],IC50 (CAL51 cell proliferation (Table 1)) [nM],SMILES
100 to 400,,"COc1cc(C(=O)NC2COC2)ccc1Nc1nc(OC)c2c(-c3ccnc(F)c3)c[nH]c2n1 [Example 381, 4-(5-(2-fluoropyridin-4-yl)-4-methoxy-7H-pyrrolo[2,3-d]pyrimidin-2-ylamino)-3-methoxy-N-(oxetan-3-yl)benzamide]"
< 100,,"COc1cc(C(=O)NC2COC2)ccc1Nc1nc(O[C@H]2CCOC2)c2c(-c3ccc4nc(C)oc4c3)c[nH]c2n1 [Example 343, (S)-3-methoxy-4-(5-(2-methylbenzo[d]oxazol-6-yl)-4-(tetrahydrofuran-3-yloxy)-7H-pyrrolo[2,3-d]pyrimidin-2-ylamino)-N-(oxetan-3-yl)benzamide]"
,< 100,"COc1nc(Nc2ccc(C(=O)N(C)C)cc2C)nc2[nH]cc(-c3ccc4[nH]c(C)nc4c3)c12 [Example 399, 4-(4-methoxy-5-(2-methyl-1H-benzo[d]imidazol-5-yl)-7H-pyrrolo[2,3-d]pyrimidin-2-ylamino)-N,N,3-trimethylbenzamide]"
